Results: patent publication US5488134A, “Preparation of compounds of lignan series” (Shionogi & Co., Ltd., priority 1993, dated 1996)

Tests used:
[1] = Cholesterol-lowering Action in cholesterol-fed mice; format: in vivo; settings: male ICR mice, feed with 1% cholesterol and 0.5% sodium cholate, 0.12% test compound in feed, seven days; for (VLDL + LDL) Cholesterol Lowering Rate: total minus HDL cholesterol; for Total Cholesterol Lowering Rate: serum
Method: Cholesterol-lowering Action
Male ICR mice (body weight: 30-40 grams) were freely fed for seven days with a feed containing 1% of cholesterol and 0.5% of sodium cholate to which 0.12% of the test compound was added (no such a compound was added for the control group), then blood was collected from the mice and the total cholesterol in serum was measured by the method of Allain described in Clinical Chemistry, volume 20, page 470 (1974).
Total amount of VLDL cholesterol and LDL cholesterol was calculated by subtracting the amount of HDL cholesterol from the amount of total cholesterol. The amount of the HDL cholesterol was measured by the method of Ash and Hentschel described in Clinical Chemistry, volume 24, page 2180 (1978).
Cholesterol lowering action of the test compound was evaluated from the cholesterol lowering rate calculated from the following expressions. [formula]

LDL = experiment: Inhibitory Action against Oxidative Modification of LDL (Cu2+-induced, TBA reactive substances); format: biochemical, New Zealand White rabbits; settings: rabbit LDL 0.2 mg protein/ml, cupric sulfate 0.5 μM Cu2+, 37° C., 24 hours, read-out: LDL-Oxidation Inhibiting IC50
Method: Inhibitory Action against Oxidative Modification of LDL
Experiments were conducted as follows according to the method of Kita, et al. described in proceedings of the National Academy of Sciences, USA, volume 84, pages 5928 (1987).
First, LDL was separated from the blood of New Zealand White rabbits fed with a feed containing 0.5% of cholesterol for three weeks and dissolved in phosphate-buffered physiological saline (final LDL concentration: 0.2 mg protein/ml). To this was added an ethanolic solution of each test compound, then cupric sulfate was added thereto (final Cu^2+ concentration: 0.5 μM) and the mixture was incubated at 37° C. for 24 hours.
The amount of lipid peroxides in each of the incubated solutions was measured as thiobarbituric acid reacting substances (TBA reactive substances) and, from the regression line of the inhibitory rate for oxidative modification of LDL and the concentration of the compound, the 50% inhibiting concentration (IC50) was calculated. Quantitative determination of the TBA reactive substances was conducted by measuring the TBA reactive substances in the supernatant (prepared by removing protein from the incubated solution) by means of TBA method.

COC(=O)c1c(C(=O)c2ccc(Cl)cc2)c(O)c2cc(OC)c(OC)c(OC)c2c1-c1ccc(OC)c(OC)c1 [Example 2, 3-(4-Chlorobenzoyl)-1-(3,4-dimethoxyphenyl)-4-hydroxy-2-(methoxycarbonyl)-6,7,8-trimethoxynaphthalene]
(VLDL + LDL) Cholesterol Lowering Rate [1]: 74% | Total Cholesterol Lowering Rate [1]: 28% | IC50 (LDL): 1.42 µM

COC(=O)c1c(C(=O)c2ccc(C(F)(F)F)cc2)c(O)c2cc(OC)c(OC)c(OC)c2c1-c1ccc(OC)c(OC)c1 [Example 1, 1-(3,4-Dimethoxyphenyl)-4-hydroxy-2-(methoxycarbonyl)-3-[4-(trifluoromethyl)benzoyl]-6,7,8-trimethoxynaphthalene]
(VLDL + LDL) Cholesterol Lowering Rate [1]: 61% | Total Cholesterol Lowering Rate [1]: 22% | IC50 (LDL): 1.52 µM
